According to patent publication US20090275574A1, “NOVEL COMPOUNDS-300” (ASTRAZENECA AB, priority 2008, published 2009):

What was measured:
[1] = biological target: T1, hM1 (human Muscarinic receptor subtype 1) (Homo sapiens, UniProt P11229); experiment: Human M1 calcium mobilization FLIPR assay; type: cell-based; details: hM1 expressed in CHO cells, intracellular Ca2+ release (FLIPR)
T1 construct: expressed in transfected cells; host or cells: CHO cells (ATCC)
T1 sequence (P11229 1-460): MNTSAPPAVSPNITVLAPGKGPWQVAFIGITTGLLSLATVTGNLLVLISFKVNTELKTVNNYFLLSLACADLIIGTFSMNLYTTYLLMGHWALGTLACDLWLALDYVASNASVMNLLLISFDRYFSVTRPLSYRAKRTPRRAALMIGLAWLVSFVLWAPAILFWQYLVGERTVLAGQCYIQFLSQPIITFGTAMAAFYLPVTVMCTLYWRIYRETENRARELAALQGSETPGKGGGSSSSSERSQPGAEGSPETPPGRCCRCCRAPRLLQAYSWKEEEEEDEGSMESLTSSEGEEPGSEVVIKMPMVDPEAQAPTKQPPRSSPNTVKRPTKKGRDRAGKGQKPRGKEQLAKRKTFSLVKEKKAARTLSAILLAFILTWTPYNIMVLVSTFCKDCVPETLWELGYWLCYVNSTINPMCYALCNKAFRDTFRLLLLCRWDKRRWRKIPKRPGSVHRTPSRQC
Procedure: Human M1, rat M1, Human M3 and Human M5 Calcium Mobilization FLIPR™ Assay The compound activity in the present invention (EC50 or IC50) is measured using a 384 plate-based imaging assay that monitors drug induced intracellular Ca^2+ release in whole cells. Activation of hM1 (human Muscarinic receptor subtype 1, gene bank access NM_000738), rM1 (rat Muscarinic receptor subtype 1, gene bank access NM_080773), hM3 (human Muscarinic receptor subtype 3, gene bank access NM_000740NM_000740) and hM5 (human Muscarinic receptor subtype 5, gene bank access NM_0121258), receptors expressed in CHO cells (Chinese hamster ovary cells, ATCC) is quantified in a Molecular Devices FLIPR IITM instrument as an increase in fluorescent signal. Inhibition of hM3 and hM5 by compounds is determined by the decrease in fluorescent signal in response to 2 nM acetylcholine activation. […] Prior to experiment, the cell culture medium is removed from the plates by inversion. […] Plates are incubated at 37° C. for 60 minutes prior to start the experiment. The incubation is terminated by washing the cells four times in assay buffer, leaving a residual 25 μl buffer per well. Cell plates are then transferred to the FLIPR, ready for compound additions. The day of experiment, acetylcholine and compounds are diluted in assay buffer in three-fold concentration range (10 points serial dilution) for addition by FLIPR instrument. For all calcium assays, a baseline reading is taken for 10 seconds followed by the addition of 12.5 μl of compounds, resulting in a total well volume of 37.5 μl. Data is collected every second for 60 pictures and then every 6 seconds for 20 pictures prior to the addition of agonist. For hM3 and hM5, before agonist addition, a second baseline reading is taken for 10 seconds followed by the addition of 12.5 μl of agonist or buffer, producing a final volume of 50 μl. After agonist stimulation, the FLIPR continues to collect data every second for 60 pictures and then every 6 seconds for 20 pictures. The fluorescence emission is read using filter 1 (emission 510-570 nm) by the FLIPR on board CCD camera. Calcium mobilization output data are calculated as the maximal relative fluorescence unit (RFU) minus the minimal value for both compound and agonist reading frame (except for hM1 and rM1 using only the maximal RFU). Data are analyzed using sigmoidal fits of a non-linear curve-fitting program (XLfit version 4.2.2 Excel add-in version 4.2.2 build 18 math 1Q version 2.1.2 build 18). All pEC50 and pIC50 values are reported as arithmetic means±standard error of mean of ‘n’ independent experiments.

cloned human M4 receptor = biological target: T2, cloned human M4 receptor (Homo sapiens, UniProt P08173); experiment: hM4 receptor GTPγS binding; type: biochemical; details: CHO membranes expressing hM4, [35S]GTPγS binding
T2 construct: purchased Perkin-Elmer RBHM4M; host or cells: Chinese hamster ovary cells (CHO), membranes
T2 sequence (P08173 1-479): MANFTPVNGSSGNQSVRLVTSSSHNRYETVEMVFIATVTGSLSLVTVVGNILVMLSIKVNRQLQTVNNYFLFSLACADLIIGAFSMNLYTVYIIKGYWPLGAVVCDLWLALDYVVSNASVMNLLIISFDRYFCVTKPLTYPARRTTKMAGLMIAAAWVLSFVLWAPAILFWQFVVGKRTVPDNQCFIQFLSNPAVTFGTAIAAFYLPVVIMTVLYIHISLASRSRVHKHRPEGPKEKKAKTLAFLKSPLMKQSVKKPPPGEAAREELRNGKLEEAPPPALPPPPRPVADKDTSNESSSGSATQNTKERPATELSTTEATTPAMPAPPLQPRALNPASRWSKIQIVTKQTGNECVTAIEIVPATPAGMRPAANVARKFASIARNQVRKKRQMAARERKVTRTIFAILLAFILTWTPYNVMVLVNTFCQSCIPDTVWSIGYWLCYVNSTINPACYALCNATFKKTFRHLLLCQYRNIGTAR
Procedure: hM4 Receptor GTPγS Binding Membranes produced from Chinese hamster ovary cells (CHO) expressing the cloned human M4 receptor (human Muscarinic receptor subtype 4, gene bank access NM_000741), are obtained from Perkin-Elmer (RBHM4M). The membranes are thawed at 37° C., passed 3 times through a 23-gauge blunt-end needle, diluted in the GTPγS binding buffer (50 mM Hepes, 20 mM NaOH, 100 mM NaCl, 1 mM EDTA, 5 mM MgCl2, pH 7.4, 100 μM DTT). The EC50, IC50 and Emax of the compounds of the invention are evaluated from 10-point dose-response curves (three fold concentration range) done in 60 μl in 384-well non-specific binding surface plate (Corning). Ten microliters from the dose-response curves plate (5× concentration) are transferred to another 384 well plate containing 25 μl of the following: 10 μg of hM4 membranes, 500 μg of Flashblue beads (Perkin-Elmer) and GDP 40 μM. An additional 15 μl containing 3.3× (60,000 dpm) of GTPγ^35S (0.4 nM final) are added to the wells resulting in a total well volume of 50 μl. Basal and maximal stimulated [^35S]GTPγS binding are determined in absence and presence of 30 μM final of acetylcholine agonist. The membranes/beads mix are pre-incubated for 15 minutes at room temperature with 40 μM GDP prior to distribution in plates (20 μM final). The reversal of acetylcholine-induced stimulation (10 μM final) of [^35S]GTPγS binding is used to assay the antagonist properties (IC50) of the compounds. The plates are incubated for 60 minutes at room temperature then centrifuged at 400 rpm for 5 minutes. The radioactivity (cpm) is counted in a Trilux (Perkin-Elmer). Values of EC50, IC50 and Emax are obtained using sigmoidal fits of a non-linear curve-fitting program (XLfit version 4.2.2 Excel add-in version 4.2.2 build 18 math 1Q version 2.1.2 build 18) of percent stimulated [^35S]GTPγS binding vs. log(molar ligand). All pEC50 and pIC50 values are reported as arithmetic means±standard error of mean of ‘n’ independent experiments.

Compound: CCOCC1CCC(N2CCC(N3C(=O)NC[C@H]4CCCC[C@@H]43)CC2)CC1 (mixture of isomers) [Example 08, (4aR,8aS)-1-(1-(4-(ethoxymethyl)cyclohexyl)piperidin-4-yl)octahydroquinazolin-2(1H)-one]
- EC50 [1]: 5.2 nM
- EC50 (cloned human M4 receptor): 985 nM

Compound: CC(C)OCC1CCC(N2CCC(N3C(=O)CO[C@H]4CCCC[C@@H]43)CC2)CC1 (mixture of isomers) [Example 15, (4aS,8aS)-4-(1-(4-(isopropoxymethyl)cyclohexyl)piperidin-4-yl)hexahydro-2H-benzo[b][1,4]oxazin-3(4H)-one]
- EC50 [1]: 10 nM
- EC50 (cloned human M4 receptor): > 33500 nM

Compound: CCCOCC1CCC(N2CCC(N3C(=O)NC[C@H]4CCCC[C@@H]43)CC2)CC1 (single isomer, unassigned) [Example 01]
- EC50 [1]: 21 nM
- EC50 (cloned human M4 receptor): > 51900 nM

Compound: CCCOCC1CCC(N2CCC(N3C(=O)NC[C@H]4CCCC[C@@H]43)CC2)CC1 (single isomer, unassigned) [Example 02]
- EC50 [1]: 2 nM
- EC50 (cloned human M4 receptor): 521 nM

Compound: CC(C)OCC1CCC(N2CCC(N3C(=O)NC[C@H]4CCCC[C@@H]43)CC2)CC1 (single isomer, unassigned) [Example 04]
- EC50 [1]: 3.2 nM
- EC50 (cloned human M4 receptor): 683 nM

Compound: CCCOC1CCC(N2CCC(N3C(=O)NC[C@H]4CCCC[C@@H]43)CC2)CC1 (single isomer, unassigned) [Example 06]
- EC50 [1]: 41 nM
- EC50 (cloned human M4 receptor): > 90000 nM

Compound: CCOCC1CCC(N2CCC(N3C(=O)CO[C@H]4CCCC[C@@H]43)CC2)CC1 (single isomer, unassigned) [Example 13]
- EC50 [1]: 17 nM
- EC50 (cloned human M4 receptor): > 23400 nM

Compound: CCOCC1CCC(N2CCC(N3C(=O)CO[C@H]4CCCC[C@@H]43)CC2)CC1 (single isomer, unassigned) [Example 14]
- EC50 [1]: 9.9 nM
- EC50 (cloned human M4 receptor): 4840 nM

Compound: CCCOC1CCC(N2CCC(N3C(=O)CO[C@H]4CCCC[C@@H]43)CC2)CC1 (single isomer, unassigned) [Example 17]
- EC50 [1]: 88 nM
- EC50 (cloned human M4 receptor): > 90000 nM

Compound: CC(C)OCC1CCC(N2CCC(N3C(=O)CO[C@H]4CCCC[C@@H]43)CC2)CC1 (single isomer, unassigned) [Example 18]
- EC50 [1]: 7.8 nM
- EC50 (cloned human M4 receptor): > 24900 nM

Compound: CC(C)OCC1CCC(N2CCC(N3C(=O)CO[C@H]4CCCC[C@@H]43)CC2)CC1 (single isomer, unassigned) [Example 19]
- EC50 [1]: 14 nM
- EC50 (cloned human M4 receptor): > 43400 nM

Compound: O=C1CO[C@H]2CCCC[C@@H]2N1C1CCN(C2CCC(COCC3CC3)CC2)CC1 (single isomer, unassigned) [Example 22]
- EC50 [1]: 5.6 nM
- EC50 (cloned human M4 receptor): > 90000 nM

Compound: O=C1CO[C@H]2CCCC[C@@H]2N1C1CCN(C2CCC(COCC3CC3)CC2)CC1 (single isomer, unassigned) [Example 23]
- EC50 [1]: 38 nM
- EC50 (cloned human M4 receptor): > 90000 nM

Compound: O=C1CO[C@H]2CCCC[C@@H]2N1C1CCN(C2CCC(COCCF)CC2)CC1 (single isomer, unassigned) [Example 24]
- EC50 [1]: 41 nM
- EC50 (cloned human M4 receptor): > 90000 nM

Compound: O=C1CO[C@H]2CCCC[C@@H]2N1C1CCN(C2CCC(COCCF)CC2)CC1 (single isomer, unassigned) [Example 25]
- EC50 [1]: 9.6 nM
- EC50 (cloned human M4 receptor): > 26500 nM

Compound: O=C1CO[C@H]2CCCC[C@@H]2N1C1CCN(C2CCC(COCC(F)F)CC2)CC1 (single isomer, unassigned) [Example 26]
- EC50 [1]: 17 nM
- EC50 (cloned human M4 receptor): > 90000 nM

Compound: O=C1CO[C@H]2CCCC[C@@H]2N1C1CCN(C2CCC(COCC(F)F)CC2)CC1 (single isomer, unassigned) [Example 27]
- EC50 [1]: 4.2 nM
- EC50 (cloned human M4 receptor): > 90000 nM

Compound: CC(C)OCC1CCC(N2CCC(N3C(=O)CO[C@H]4CCC(F)(F)C[C@@H]43)CC2)CC1 (single isomer, unassigned) [Example 37]
- EC50 [1]: 34 nM
- EC50 (cloned human M4 receptor): > 90000 nM

Compound: CC(C)OCC1CCC(N2CCC(N3C(=O)CO[C@H]4CCC(F)(F)C[C@@H]43)CC2)CC1 (single isomer, unassigned) [Example 38]
- EC50 [1]: 18 nM
- EC50 (cloned human M4 receptor): > 90000 nM

Compound: CCOCC1CC(N2CCC(N3C(=O)CO[C@H]4CCCC[C@@H]43)CC2)C1 (single isomer, unassigned) [Example 39]
- EC50 [1]: 33 nM
- EC50 (cloned human M4 receptor): > 90000 nM

Compound: O=C1CO[C@H]2CCCC[C@@H]2N1C1CCN(C2CC(COCC3CCC3)C2)CC1 (single isomer, unassigned) [Example 40]
- EC50 [1]: 57 nM
- EC50 (cloned human M4 receptor): > 90000 nM

Compound: CCOCC1CCC(N2CCC(N3C(=O)CO[C@H]4CCCC[C@@H]43)CC2)C1 (single isomer, unassigned) [Example 44]
- EC50 [1]: 0.97 nM
- EC50 (cloned human M4 receptor): 5360 nM

Compound: CCOCC1CCC(N2CCC(N3C(=O)CO[C@H]4CCCC[C@@H]43)CC2)C1 (single isomer, unassigned) [Example 45]
- EC50 [1]: 48 nM
- EC50 (cloned human M4 receptor): > 14700 nM

Compound: O=C1COC2CCCC2N1C1CCN([C@H]2CC[C@@H](COCC3CC3)CC2)CC1 (single isomer, unassigned) [Example 48]
- EC50 [1]: 15 nM
- EC50 (cloned human M4 receptor): > 11700 nM

Compound: O=C1NC[C@H]2CCCC[C@@H]2N1C1CCN(C2CCC(COCC(F)F)CC2)CC1 (single isomer, unassigned) [Example 51]
- EC50 [1]: 23 nM
- EC50 (cloned human M4 receptor): > 90000 nM

Compound: CCOC[C@H]1CC[C@@H](N2CCC(N3C(=O)CO[C@H]4CCCC[C@@H]43)CC2)C1 [Example 42, (4aS,8aS)-4-(1-((1R,3S)-3-(ethoxymethyl)cyclopentyl)piperidin-4-yl)hexahydro-2H-benzo[b][1,4]oxazin-3(4H)-one]
- EC50 [1]: 4.2 nM
- EC50 (cloned human M4 receptor): 4240 nM
